Test results from patent publication US6979447B2, “Immunomodulation and effect on cell processes relating to serotonin family receptors” (Philadelphia Health and Education Corporation, priority 2001, dated 2005).
Entries after “also recorded” stand apart in the source; their conditions may differ.

Experiments:
[1] = system: human lymphocytes; assay: Human mitogenic (ConA) stimulation, 3H-thymidine incorporation; format: cell-based; settings: for effect on activation / proliferative response: ConA 5 μg/ml, harvested 72 hours, FIGS. 7A, 8A, 9A; for effect on stimulation of ConA-stimulated human PBLs: reagents at 400 μM, time course, FIG. 4
Description: Blood from healthy volunteers was drawn using venipuncture, using Vacutainer collection sets and heparinized collection vials. The blood was diluted 1:1 using HBSS to a total volume of 30 ml in 50 ml conical tubes (Fisher Scientific, Co., Pittsburgh, Pa.). […] Cells from the buffy coats were collected and the residual Histopaque was washed away using repeated centrifugations in HBSS. After washes, cells were resuspended at 5 million cells per ml in RPMI, supplemented with 2% FBS. To remove adherent cells, the suspension was plated onto a 6 well flat-bottom plate (Corning Costar), 3 ml/well, and incubated for 2 hours at 37° C., 5% CO2. Non-adherent cells were harvested after this incubation, were counted and resuspended in RPMI supplemented with 10% human serum (Sigma).
All drugs were pre-plated before the cell suspension was added onto each well of a 96-well round-bottom plate. All experimental conditions were assayed in at least triplicate. Cells suspended in RPMI supplemented with 10% human serum were plated at 100,000 cells per well to a final volume of 200 μl. […] Control samples received no ConA stimulation. The plates were incubated at 37° C. and 5% CO2. One microCurie of tritiated thymidine was added to each well after 60 hours, and the plates were harvested 12 hours later.

[2] = system: T cells; assay: Macrophage media-conditioning study, T cell proliferation in conditioned media; format: cell-based, mouse; settings: for conditioning effect of the media: uptake inhibitor present during the conditioning phase
Text: Femur and tibia bones were harvested from the hind limbs of 6-8 week old C57/B6J mice (Jackson Laboratories, Bar Harbor, Me.). The distal ends of the bones were removed, exposing the marrow plugs. Using a 22 gauge needle (Becton-Dickinson, Lincoln Park, N.J.), the marrow cavities were flushed with RPMI medium supplemented 2% FBS. The cell suspension was then passed through a nylon mesh to remove stromal cells. Red blood cells were lysed using ACK (ammonium chloride potassium lysis buffer; 0.15 M NH4Cl, 10 mM KHCO3, 0.1 mM EDTA) buffer as described in Current Protocols in Immunology (Section 3.1.5).
Cells were resuspended at 10^7 cells/ml in RPMI medium, containing 10% FBS, 500 units/ml of murine M-CSF, and 3 ml/well of cell suspension were plated onto a 6 well flat-bottom plate. […] Cells were grown for 4 days. Spleens of 6-8 week old BALB/c/BYJ were harvested, and single cell suspension was made. Red blood cells were removed as described above. Adherent cells were removed by 1.5 hour incubation on a nylon wool column, and suspension cells were collected. The BALB/c cells were then plated over the C57/B6 cells (see supra), at 1.2×10^6 cells/well, in 0.65 ml (bringing brought the final volume of each well to 1.3 ml). The cells were grown for 2.5 days. When appropriate, fluoxetine or BCH were added at the beginning of this incubation. The medium from the mixed cell cultures was harvested, centrifuged at 1200 RPM to remove cells, and filtered using a 0.22 microns syringe filter (Corning). This filtered medium was used to support another round of cell proliferation.

[3] = system: human lymphocytes; assay: Human mixed lymphocyte reaction (allogeneic stimulation); format: cell-based; settings: allogeneic stimulation, harvested 120 hours, FIGS. 7B, 8B, 9B
Text: Blood from two healthy, non-related, donors was taken as described above. Peripheral blood mononuclear cells were isolated as described previously elsewhere. The adherent cells were separated from the suspension cells as described previously for both donors. Suspension cells from both donors (donors A and B) were used as responders. The remaining adherent cells from each of the donors were used as stimulators against a different donor (suspension A against adherent B and adherent A against suspension B). The stimulator cells were irradiated at 35 Gy. Drugs were pre-plated onto 96 well, U-bottom plates in triplicate. 200,000 “stimulator” cells in RPMI supplemented with 10% human serum were then plated in each well. 200,000 “responder” cells in the same medium were then plated over stimulators to a final volume of 200 μl/well. Background controls received either no stimulator cells, or no responder cells. The plates were incubated at 37° C. and 5% CO2. 1 μCi of tritiated thymidine was added to each well after 4.5 days, and the plates were harvested 12 hours later.

[4] = system: allogeneic CTL response to P815 cells; assay: Murine allograft model, CTL killing of P815 target cells by splenocytes; format: in vivo, C57BL/6J mice; settings: for effect on allogeneic killing response: tail vein 300 μg/injection on days 5 and 7, sacrificed day 14, FIGS. 18A, 18B; for effect on allograft (CTL) response: tail vein bolus 200 μg/injection on days 6 and 8, sacrificed day 14, FIG. 13
Description: The in vivo validation screen used was an art-recognized murine allogeneic rejection model as described in Zhan et al., 2000. For this assay, a complete MHC miss-match system was employed wherein 5×10^6 P815 cells ([H-2^d] DBA/2 mastocytoma) were injected into the peritoneal cavity of C57BL/6J (H-2^b) mice on day 0 of the experiment. These mice typically generate a strong cytotoxic T lymphocyte (CTL) reaction in response to P815 cells. Following the initial P815 cell inoculation, the mice were allowed to develop a CTL response (this usually takes about 10-14 days). […] Mice were then sacrificed on day 14 of the experiment as indicated in the figures; and the allogeneic CTL response was assayed as described previously (Tretiakova et al., 2000, Nature Biotechnology 18:984-988). The primary spleen cells from the treated and untreated animals were used in the direct CTL readout. Freshly obtained primary spleen cells were incubated with the [^3H] labeled target cells (P815 cells) at 100:1, 50:1, 25:1, and 12.5:1 ratios for 3.5 hours at 37° C. and harvested using a PHD harvester. The percentage of specific killing was determined using the formula % kill=(S−E)/S, where S is the amount of the DNA retained by the target cells in the absence of the effector cells and E is the amount of retained DNA in the presence of the effector cells (expressed in counts per minute; cpm).
This is an art-recognized model of allograft […] rejection based on that described by […]. (2000). In this model, there is a complete MHC mismatch between the P815 cells (H-2^d) and the C57BL6 mouse (H-2^b), thus ensuring an aggressive immune response. The data disclosed in FIG. 13, depicts results of experiments that included 6 treatment groups, each group consisting of three mice. Each mouse received 5×10^6 P815 cells injected into the peritoneal cavity on day 0 of the study. The first group was an untreated control group, which was used to establish the baseline response of the mice against the allogeneic stimulus. These mice, without any further treatments, were sacrificed, as were the other treatment groups, on day 14 of the study and their splenocytes assayed for target-specific killing of the P815 cells.
The average kill observed for the untreated group was about 45% at an effector to target ratio of 100:1. […] The timing of the drug administration was selected to ensure that the T cells were fully activated prior to the drug treatment. The third group was treated with propanolol, a 5HT-1 antagonist. All of the 5HT receptor antagonist-treated groups were treated as described for the risperidone-treated group. The fourth group was treated chronically with CyclosporinA. The Cyclosporin A was administered ip at a dosage of 100 μg/injection starting two days prior to the onset of the study, i.e., at day-2, and the injections were continued on a daily basis for the duration of the study.
Finally, studies conducted in vivo using the CD8-dependent allograft rejection model, in which P815 cells (a rapidly growing cell line taken from a mastocytoma in a DBA mouse), were expanded and used to create a robust rejection response in a C57BL6 mouse. In this study the mice received 5×10^6 P815 cells injected into their peritoneal cavity on day 0 of the study. The first group was an untreated control group (naïve animals), used to acquire the baseline response of the mice against the allogeneic stimulus. The positive controls were treated with the allogeneic cells without any further treatments. These animals were used to assess the induced allogeneic response against the P815 cells.
All treatment groups were sacrificed on day 14 of the study and their splenocytes assayed for target-specific killing of the P815 cells (the averaged overall kill observed for the positive control group was about 45% at an effector to target ratio of 100:1). The serotonin-specific compounds were administered via tail vein injection (300 μg/injection) on days 5 and 7 of the study. […]

[5] = system: RPMI-8226 cells; assay: Hematoxylin-eosin / bis-benzamide staining of RPMI-8226 cytospins; format: cell-based, human; settings: 2 μM, 9 hour treatment, FIG. 28
Description: 2.0×10^5 RPMI-8226 cells were cultured, in 6-well culture plates, in the presence of the indicated drug concentrations, in a total of 5 mL RPMI-1640 supplemented with 10% FBS. Each well was harvested in its entirety and divided into two identical samples for cytospins.
1.0×10^5 RPMI-8226 cells from each treatment group were loaded into Cyto-funnels and centrifuged at 500 rpm for 4 minutes with medium acceleration. Slides were then fixed through graded methanol in PBS (100%, 5 minutes; 80%, 5 minutes; 50%, 5 minutes), washed for 5 minutes in PBS and stored in PBS at 4° C. until stained.
Cytospun slides were stained with Hematoxylin and Eosin, followed by the nuclear stain, bis-benzamide, rinsed and mounted according to standard staining protocols. Slides were visualized under both brightfield and fluorescent light to generate matched images of the same slide field (see, e.g., FIGS. 28 and 29).

Compound: N[C@@H](Cc1ccc(Cl)cc1)C(=O)O (racemic) [PCPA, para-chlorophenylalanine]
- effect on mitogenic response ([1]; ConA 1 μg/ml, human PBLs, FIG. 3): inhibits the mitogenic response in a dose-dependent manner

Compound: NC1(C(=O)O)CC2CCC1C2 (stereo not shown) [2-amino 2-norbornane carboxylic acid]
- conditioning effect of the media [2]: can be prevented

Compound: N[C@@H](Cc1c[nH]c2ccc(O)cc12)C(=O)O [5-hydroxy-tryptophan]
- effect on proliferation response ([1]; 25 μM, in the absence of PCPA, FIG. 3): significantly enhanced the proliferation response
- reversal of PCPA inhibition of the mitogenic response ([1]; added to PCPA-inhibited cells, FIG. 3): this inhibition can be reversed

Compound: OC(CN1CCN(c2cccc(Cl)c2)CC1)C(c1ccccc1)c1ccccc1 (stereo not shown) [BRL 15572]
- effect on activation / proliferative response [1]: no effect upon the proliferative response
- effect on activation / proliferative response [3]: no effect upon the proliferative response

Compound: CC(O)C(C)OC(=O)[C@@H]1C[C@@H]2c3cccc4c3c(cn4C(C)C)C[C@H]2N(C)C1 (stereo partly shown) [LY 53857]
- effect on activation / proliferative response [1]: inhibit the activation response at pharmacologically relevant concentrations
- effect on activation / proliferative response [3]: inhibit the activation response at pharmacologically relevant concentrations

Compound: Cn1ccc2cc3c(cc21)CCN3C(=O)Nc1cccnc1 [SB 206553]
- effect on activation / proliferative response [1]: inhibit the activation response at pharmacologically relevant concentrations
- in vitro effect on activation response / helper T cell proliferation (summary statement) [1]: immediate cessation of proliferation
- effect on activation / proliferative response [3]: inhibit the activation response at pharmacologically relevant concentrations
- effect on allogeneic killing response [4]: striking
- effect on allograft (CTL) response [4]: inhibited the allograft response to varying degrees
- individual mouse responses within treated group ([4]; three treated mice, FIG. 14): Two of the treated mice had the allogeneic response completely suppressed; also recorded: Two of the three treated mice inhibited the allograft response to a degree equivalent to that observed in the Cyclosporin A-treated animals

Compound: COc1ccccc1N1CCN(CCN(C(=O)C2CCCCC2)c2ccccn2)CC1 [WAY 100635]
- in vitro effect on activation response / helper T cell proliferation (summary statement) [1]: significantly inhibits the activation response

Compound: CC[C@@]1(O)C(=O)OCc2c1cc1n(c2=O)Cc2cc3ccccc3nc2-1 [camptothecin]
- chromatin / nuclear morphology [5]: Extensive chromatin condensation and nuclear fragmentation

Compound: CNCCC(Oc1ccc(C(F)(F)F)cc1)c1ccccc1 (stereo not shown) [fluoxetine]
- conditioning effect of the media [2]: can be prevented

Compound: CC[C@@H](CO)NC(=O)[C@@H]1C=C2c3cccc4c3c(cn4C)C[C@H]2N(C)C1 [methysergide]
- effect on allogeneic killing response [4]: complete inhibition of the induced killing response; also recorded: abrogated the allogeneic killing response; also recorded: inhibition profile was striking
- effect on allograft (CTL) response [4]: inhibited the allograft response to varying degrees

Compound: NNCCc1ccccc1 [phenelzine]
- drug concentration giving significant inhibition ([1]; ConA 0.1 and 1 μg/ml, FIGS. 5A and 5B): 10 to 100 µM
- drug concentration giving full inhibition ([1]; higher ConA stimulation (10 μg/ml)): 100 to 400 µM
- effect on proliferative response ([1]; highest ConA dose, 10 μg/ml, harvest 72 hours, FIG. 5C): no inhibition was observed
- effect on stimulation of ConA-stimulated human PBLs [1]: completely shut down the stimulation

Compound: NCCc1c[nH]c2ccc(O)cc12 [serotonin, 5-hydroxytryptamine]
- relief of phenelzine-induced inhibition ([1]; ConA 1 μg/ml, added to phenelzine-inhibited cells, 100 μM each, FIG. 6): caused the assay to rebound to baseline levels
- effect on proliferative response ([1]; ConA 1 μg/ml, reagent 100 μM, FIG. 6): did not
- effect on the assay across ConA concentrations ([1]; ConA 0.1, 1 and 10 μg/ml, harvest 72 hours, FIG. 5): no effect on the assay until the highest dose of ConA
- effect on stimulation of ConA-stimulated human PBLs [1]: enhanced the maximal stimulation of the cells
- restoration of T cell proliferation in conditioned media ([2]; added to conditioned media, FIG. 1): only marginally restored the assay
